Consider one substance from US4746729A, “Cartilage-derived leukocyte elastase-inhibitor” (priority 1986, dated 1988).

This test concerns PMN-Elastase. As to the kind of experiment: PMN-Elastase inhibition assay with chromogenic substrate. Format: biochemical, human. The note with it: substrate methoxysuccinyl-Ala-Ala-Pro-Val-p-nitroanilide, 405 nm absorption, semiquantitative. The procedure:
PMN-Elastase was isolated and purified from human neutrophile as depicted in Recent Advances In Connective Tissue Research, 1986, Bukhauser Verlag, Basel, Boston, Stuttgart, C. Arsenis, E. S.-M. A. Thomar, and K. E. Kuettner, pages 63-68, incorporated herein by reference. It has essentially no cathepsin-G activity. The enzyme was tested against its natural substrates, such as type IV collagen, insoluble amorphous elastin, and against the specific synthetic substrate Methoxysuccinyl-L-Alanyl-L-Alanyl-L-Prolyl-L-Valyl-p-nitro-anilide, from which a DMSO stock solution was made. See The Journal of Bioloqical Chemistry, Vol. 254, pp. 4027-4032, 1979, K. Nakajima, J. C. Powers, B. M. Ashe, and M. Zimmerman, incorporated herein by reference. Aliquots were diluted with assay buffer for each measurement.
30 microliters (2.5-15 micrograms protein/ml) of PMN-Elastase was poured into a 96 well-plate, and 70 microliters of sample were added and incubated for 30 minutes at 30° C. After addition of 100 microliters substrate solution (methoxy-succinyl-L-Alanyl-L-Alanyl-L-Prolyl-L-Valyl-p-nitroanilide) in DMSO, dilution to 3 mM was effected with a buffer solution of 20 mM Tris and 500 mM NaCl at pH 7.3 (final DMSO concentration 10%). […] By varying the enzyme quantities, semiquantitative relationships were obtained.

“serum albumin: 68 KD blood contaminant in the high molecular weight fraction of the cartilage extract”: the PMN-Elastase inhibitory activity entry is recorded as “inhibit the PMN-Elastase to a certain extent”.
